Experimental findings from ChEMBL document CHEMBL1777763, “Discovery of a nortropanol derivative as a potent and orally active GPR119 agonist for type 2 diabetes” (Bioorg Med Chem Lett, 2011) are described below.

As usually defined, the IC50 is the midpoint of a concentration-inhibition curve. In general, inhibition in vivo refers to the percentage by which the read-out fell short of the control. One may read the EC50 as the concentration giving half of the maximal effect. By Tmax is commonly meant the time at which the peak concentration occurs. What is called inhibition is how much of the control response was suppressed. Broadly, the AUC is concentration integrated over time. One may read the Cmax as the maximum level reached in the sampled fluid or tissue.

One data set addresses Cytochrome P450 2D6 (Homo sapiens, UniProt P10635). Kind of data set: Inhibition of CYP2D6. Format: ADME.
For data set [1], the target named is T1, Glucose-dependent insulinotropic receptor (Mus musculus) (UniProt Q7TQP3).
T1 sequence (whole entry): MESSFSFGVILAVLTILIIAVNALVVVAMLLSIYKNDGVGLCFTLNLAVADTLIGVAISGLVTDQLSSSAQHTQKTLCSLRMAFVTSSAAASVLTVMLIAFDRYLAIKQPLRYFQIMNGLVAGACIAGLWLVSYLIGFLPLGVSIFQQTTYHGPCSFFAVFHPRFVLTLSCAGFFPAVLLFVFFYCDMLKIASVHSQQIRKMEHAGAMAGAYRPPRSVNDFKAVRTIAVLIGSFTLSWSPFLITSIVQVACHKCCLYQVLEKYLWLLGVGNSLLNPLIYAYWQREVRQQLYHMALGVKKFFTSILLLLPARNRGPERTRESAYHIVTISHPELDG
The experiment in a line: Agonist activity at mouse GPR119 expressed in HEK293 cells assessed as maximal stimulation of cMAP level by cell-based cAMP assay relative to 21. The data set is classed as functional.

Data set [2] can be described thus: Plasma concentration in mouse at 3 mg/kg, po after 1 hr. Format: ADME, organism-based. Set-up: dose 3 mg/kg, route oral.
Data set [3] can be described thus: Plasma concentration in lean mouse at 30 mg/kg, po after 60 mins. The data set is classed as ADME, organism-based. Details: dose 30 mg/kg, route oral.
Data set [4] deals with Mus musculus. The experiment in a line: Antidiabetic activity in laen mouse model assessed as reduction in blood glucose level at 10 mg/kg, po up to 60 mins by oral glucose tolerance test. The conditions noted are these: 1 h. Format: functional.
The target in data set [5] is T2, Glucose-dependent insulinotropic receptor (Mus musculus, UniProt Q7TQP3).
T2 sequence (Q7TQP3 whole entry): T1 sequence (whole entry)
The experiment in a line: Agonist activity at mouse GPR119 expressed in HEK293 cells assessed as stimulation of cMAP level by cell-based cAMP assay. The data set is classed as functional.

Data set [6] concerns Mus musculus. The experiment in a line: Antidiabetic activity in overnight fasted mouse model assessed as blood glucose level at 3 mg/kg, po followed by 30 mins after administered 3 g/kg, po glucose by oral glucose tolerance test (reference value: 100 %). The data set is classed as functional.
A short description of data set [7]: Tmax in monkey at 3 mg/kg, po. Format: ADME, organism-based, Macaca mulatta. To be noted: rhesus monkey, in vivo. Details: dose 3 mg/kg, route oral.
The next data set concerns the target hERG (KCNH2) (Homo sapiens, UniProt Q12809). The experiment in a line: Inhibition of human ERG at 10 uM.
For data set [8], the system named is Mus musculus. The experiment in a line: Antidiabetic activity in laen mouse model assessed as reduction in blood glucose level at 30 mg/kg, po up to 60 mins by oral glucose tolerance test. Format: functional. To be noted: 1 h.
The test system of the next data set is Rhesus monkey. The experiment in a line: AUC (0 to 24 hrs) in monkey at 3 mg/kg, po. The data set is classed as ADME, organism-based, Macaca mulatta, Plasma. Details: time < 24 hr, dose 3 mg/kg, route oral. The conditions noted are these: in vivo.
The target of the next data set is T3, PXR (NR1I2) (Homo sapiens, UniProt O75469).
T3 sequence (O75469 whole entry): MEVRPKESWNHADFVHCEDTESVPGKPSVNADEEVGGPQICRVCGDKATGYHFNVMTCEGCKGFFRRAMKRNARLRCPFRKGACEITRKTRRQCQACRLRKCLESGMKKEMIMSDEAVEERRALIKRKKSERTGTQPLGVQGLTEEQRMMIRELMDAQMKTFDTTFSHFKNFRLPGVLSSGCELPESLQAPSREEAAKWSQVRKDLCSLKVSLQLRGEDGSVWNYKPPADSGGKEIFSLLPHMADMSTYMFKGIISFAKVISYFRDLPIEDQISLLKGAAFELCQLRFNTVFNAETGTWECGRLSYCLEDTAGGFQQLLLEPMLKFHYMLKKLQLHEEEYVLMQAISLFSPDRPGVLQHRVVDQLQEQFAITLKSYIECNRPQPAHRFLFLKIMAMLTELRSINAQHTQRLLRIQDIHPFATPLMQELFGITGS
Kind of data set: Inhibition of human PXR transfected in HepG2 cells at 10 uM. Format: cell-based. To be noted: HepG2 cells transfected with human PXR.

The subject of data set [9] is Rattus norvegicus. Kind of data set: Antidiabetic activity in lean anesthetized rat hyperglycemic clamp model assessed as increase in insulin level at 1 mg/kg, iv relative to control.
In the next data set the test system is Salmonella typhimurium. The experiment in a line: Genotoxicity in Salmonella Typhimurium by Ames test. Format: toxicity, organism-based. To be noted: salmonella enterica subsp. enterica serovar typhimurium. Background: The Ames test detects mutagens through reverse mutation in bacteria.
The nature of data set [10]: Plasma concentration in lean mouse at 3 mg/kg, po after 60 mins. The data set is classed as ADME, organism-based. Details: dose 3 mg/kg, route oral.
For a further data set, the target named is Cytochrome P450 3A4 (Homo sapiens, UniProt P08684). Kind of data set: Inhibition of CYP3A4. Format: ADME.
Chain of Cytochrome P450 3A4 (P08684 whole entry): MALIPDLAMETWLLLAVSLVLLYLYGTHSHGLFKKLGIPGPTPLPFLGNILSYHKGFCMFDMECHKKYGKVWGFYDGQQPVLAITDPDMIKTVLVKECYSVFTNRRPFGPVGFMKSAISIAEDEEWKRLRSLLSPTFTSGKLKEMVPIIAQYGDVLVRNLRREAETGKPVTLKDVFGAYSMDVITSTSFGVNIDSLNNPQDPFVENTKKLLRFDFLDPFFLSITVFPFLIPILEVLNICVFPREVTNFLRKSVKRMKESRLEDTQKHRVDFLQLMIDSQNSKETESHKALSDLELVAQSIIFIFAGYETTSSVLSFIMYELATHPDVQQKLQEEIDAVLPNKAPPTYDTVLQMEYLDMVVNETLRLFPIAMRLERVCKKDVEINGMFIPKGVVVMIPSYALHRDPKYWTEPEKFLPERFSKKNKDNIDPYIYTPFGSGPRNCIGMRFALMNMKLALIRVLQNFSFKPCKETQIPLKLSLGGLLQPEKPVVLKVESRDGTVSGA
The nature of data set [11]: Plasma concentration in lean mouse at 10 mg/kg, po after 60 mins. Format: ADME, organism-based. Set-up: dose 10 mg/kg, route oral.
The test system of data set [12] is Rattus norvegicus. Kind of data set: AUC (0 to 6 hrs) in rat at 10 mg/kg, po. Format: ADME, organism-based, Plasma. Details: time < 6 hr, dose 10 mg/kg, route oral. The conditions noted are these: in vivo.
In a further data set the target is Cytochrome P450 2C9 (Homo sapiens, UniProt P11712). The experiment in a line: Inhibition of CYP2C9. Format: ADME.
Chain of Cytochrome P450 2C9 (P11712 whole entry): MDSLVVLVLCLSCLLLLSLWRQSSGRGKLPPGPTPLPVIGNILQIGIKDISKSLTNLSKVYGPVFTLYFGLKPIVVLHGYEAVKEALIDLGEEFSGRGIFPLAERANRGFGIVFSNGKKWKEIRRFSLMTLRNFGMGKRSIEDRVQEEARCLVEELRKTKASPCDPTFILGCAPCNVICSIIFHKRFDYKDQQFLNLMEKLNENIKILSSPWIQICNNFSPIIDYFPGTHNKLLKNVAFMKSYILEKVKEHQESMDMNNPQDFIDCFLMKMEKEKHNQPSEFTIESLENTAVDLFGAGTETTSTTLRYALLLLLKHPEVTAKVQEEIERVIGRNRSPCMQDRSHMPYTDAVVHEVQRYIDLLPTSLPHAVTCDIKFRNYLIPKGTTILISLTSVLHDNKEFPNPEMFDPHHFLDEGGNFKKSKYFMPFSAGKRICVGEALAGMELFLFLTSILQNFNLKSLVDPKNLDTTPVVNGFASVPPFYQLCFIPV
The target in data set [13] is Probable G-protein coupled receptor 160 (Homo sapiens) (UniProt Q9UJ42). Kind of data set: Inhibition of GPCR-1 at 10 uM.
Chain of Probable G-protein coupled receptor 160 (Homo sapiens) (Q9UJ42 whole entry): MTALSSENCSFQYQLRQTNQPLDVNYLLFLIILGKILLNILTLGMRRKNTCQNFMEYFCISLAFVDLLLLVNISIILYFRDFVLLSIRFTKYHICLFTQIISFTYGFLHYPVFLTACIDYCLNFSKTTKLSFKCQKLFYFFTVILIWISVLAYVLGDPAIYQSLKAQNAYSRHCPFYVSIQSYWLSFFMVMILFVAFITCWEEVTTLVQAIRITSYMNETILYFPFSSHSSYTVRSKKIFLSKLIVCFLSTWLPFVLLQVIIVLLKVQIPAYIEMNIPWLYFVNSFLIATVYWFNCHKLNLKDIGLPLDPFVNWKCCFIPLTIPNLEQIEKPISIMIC
A short description of data set [14]: Cmax in monkey at 3 mg/kg, po. To be noted: rhesus monkey, in vivo. The data set is classed as ADME, organism-based, Macaca mulatta. Details: dose 3 mg/kg, route oral.
Data set [15] relates to Mus musculus. The experiment in a line: Antidiabetic activity in laen mouse model assessed as reduction in blood glucose level at 3 mg/kg, po up to 60 mins by oral glucose tolerance test. The data set is classed as functional. To be noted: 1 h.

Active and inactive are the calls of the source. No cut-off for these calls is given here.

Chain of hERG (KCNH2) (Q12809 whole entry): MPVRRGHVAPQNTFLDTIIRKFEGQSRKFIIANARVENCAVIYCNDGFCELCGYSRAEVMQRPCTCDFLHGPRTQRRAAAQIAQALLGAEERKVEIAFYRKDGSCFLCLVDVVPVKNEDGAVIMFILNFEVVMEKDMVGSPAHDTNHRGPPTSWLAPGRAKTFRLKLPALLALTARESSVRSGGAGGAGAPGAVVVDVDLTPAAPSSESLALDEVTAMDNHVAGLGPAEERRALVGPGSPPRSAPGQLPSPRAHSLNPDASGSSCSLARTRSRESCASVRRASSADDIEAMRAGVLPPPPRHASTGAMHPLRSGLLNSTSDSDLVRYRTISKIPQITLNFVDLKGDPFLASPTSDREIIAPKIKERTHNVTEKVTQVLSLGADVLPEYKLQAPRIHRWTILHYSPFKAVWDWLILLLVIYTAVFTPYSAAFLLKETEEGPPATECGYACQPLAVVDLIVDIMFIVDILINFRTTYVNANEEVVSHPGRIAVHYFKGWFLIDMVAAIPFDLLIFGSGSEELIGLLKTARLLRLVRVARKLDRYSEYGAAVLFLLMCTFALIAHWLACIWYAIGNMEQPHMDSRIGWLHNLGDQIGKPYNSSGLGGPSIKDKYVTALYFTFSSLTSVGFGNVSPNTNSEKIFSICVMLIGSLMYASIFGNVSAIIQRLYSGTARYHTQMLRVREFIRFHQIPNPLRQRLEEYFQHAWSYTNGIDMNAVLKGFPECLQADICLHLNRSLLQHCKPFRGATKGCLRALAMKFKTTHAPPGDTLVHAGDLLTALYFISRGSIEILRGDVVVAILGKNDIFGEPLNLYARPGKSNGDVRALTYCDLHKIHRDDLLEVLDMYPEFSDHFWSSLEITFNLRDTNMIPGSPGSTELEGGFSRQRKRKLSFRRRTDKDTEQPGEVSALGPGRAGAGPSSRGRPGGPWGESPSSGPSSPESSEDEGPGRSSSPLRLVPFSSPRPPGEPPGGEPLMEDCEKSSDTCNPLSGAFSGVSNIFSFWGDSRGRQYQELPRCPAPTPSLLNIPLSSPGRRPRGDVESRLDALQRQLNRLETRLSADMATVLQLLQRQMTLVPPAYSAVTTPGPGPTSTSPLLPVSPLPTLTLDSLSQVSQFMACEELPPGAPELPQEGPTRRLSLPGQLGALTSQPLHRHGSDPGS
Chain of Cytochrome P450 2D6 (P10635 whole entry): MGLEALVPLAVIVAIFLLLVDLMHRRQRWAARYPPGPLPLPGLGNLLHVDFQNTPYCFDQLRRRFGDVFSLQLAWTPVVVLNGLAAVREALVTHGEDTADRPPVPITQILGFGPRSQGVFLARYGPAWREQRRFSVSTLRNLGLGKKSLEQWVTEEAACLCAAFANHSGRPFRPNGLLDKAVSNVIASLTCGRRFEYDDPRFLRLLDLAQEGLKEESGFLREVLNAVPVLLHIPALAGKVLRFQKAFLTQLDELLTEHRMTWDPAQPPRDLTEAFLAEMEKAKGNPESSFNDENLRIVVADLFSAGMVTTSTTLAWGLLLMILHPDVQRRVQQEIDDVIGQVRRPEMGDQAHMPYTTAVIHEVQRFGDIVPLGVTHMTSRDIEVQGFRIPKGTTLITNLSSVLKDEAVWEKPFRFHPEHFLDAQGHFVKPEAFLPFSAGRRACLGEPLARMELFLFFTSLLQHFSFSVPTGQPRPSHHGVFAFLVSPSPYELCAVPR

Regarding `Cc1c(Nc2ccc(C#N)cc2Cl)ncnc1O[C@H]1CC2CC[C@@H](C1)N2S(=O)(=O)C1CC1` (single isomer, unassigned), the IC50 against Cytochrome P450 2D6, on Cytochrome P450 3A4 and against Cytochrome P450 2C9 was greater than 20 µM in each case. Moreover, the values for the Activity (in [1]; with Salmonella typhimurium) were 110% and “Non-toxic”, respectively. The concentration at 1 h is 275 nM in data set [2], 1400 nM in [3], 400 nM in data set [10] and 800 nM in data set [11]. Besides, in the data set with Mus musculus [4], the inhibition in vivo at 10 mg/kg was 30%. Moreover, the EC50 in data set [5] is 140 nM. Moreover, the “Blood glucose (% of vehicle)” value in the data set with Mus musculus [6] is 91%. Moreover, the Tmax in data set [7] was found to be 4.5 h. Also, the inhibition at 10 µM on hERG (KCNH2) was found to be 9%; against PXR (NR1I2), 0.09%. Further, the inhibition in vivo at 30 mg/kg in the data set on Mus musculus [8] is 39%. Further, the AUC in the data set with Rhesus monkey was determined as 16.5 µM·h; in the data set on Rattus norvegicus [12] it was 2170 nM·h. In the data set with Rattus norvegicus [9], the result was Active. In addition, the inhibition in [13] is less than 30%. This compound yielded a Cmax in data set [14] of 997 nM. Further, the inhibition in vivo at 3 mg/kg in the data set with Mus musculus [15] is 28%.
